Biological target: PDE10A (Homo sapiens (Human), UniProt Q9Y233)
Conditions: read-out: Inhibition of PDE10A, IC50
Experimental: Inhibition of Recombinant PDE10A (Expressed in Baculovirus/SF21 Cells)
PDE activity was determined in a one step procedure in microtiter plates. The reaction mixture of 100 μl contained 50 mM Tris-HCl/5 mM MgCl2 buffer (pH=7.4, Sigma, Deisenhofen, Germany; Merck, Darmstadt, Germany) 0.1 μM [3H]-cAMP (PerkinElmer, Shelton, USA) and the enzyme. Non-specific enzyme activity was determined without the enzyme.
The reaction was initiated by addition of the substrate solution and was carried out at 37° C. for 30 minutes. Enzymatic activity then was stopped by addition of 25 μl Ysi-SPA-beads (PerkinElmer, Shelton, USA). One h later the mixture was measured in a liquid scintillation counter for microtiter plates (Microbeta Trilux). The Biomek 2000 (Beckman) was used routinely for pipetting of the incubation mixture. […] For determination of IC50 values the Hill-plot, 2-parameter-model, was used.

PDE10A, sequence (Q9Y233 other isoform, or with tags, fused parts or gaps): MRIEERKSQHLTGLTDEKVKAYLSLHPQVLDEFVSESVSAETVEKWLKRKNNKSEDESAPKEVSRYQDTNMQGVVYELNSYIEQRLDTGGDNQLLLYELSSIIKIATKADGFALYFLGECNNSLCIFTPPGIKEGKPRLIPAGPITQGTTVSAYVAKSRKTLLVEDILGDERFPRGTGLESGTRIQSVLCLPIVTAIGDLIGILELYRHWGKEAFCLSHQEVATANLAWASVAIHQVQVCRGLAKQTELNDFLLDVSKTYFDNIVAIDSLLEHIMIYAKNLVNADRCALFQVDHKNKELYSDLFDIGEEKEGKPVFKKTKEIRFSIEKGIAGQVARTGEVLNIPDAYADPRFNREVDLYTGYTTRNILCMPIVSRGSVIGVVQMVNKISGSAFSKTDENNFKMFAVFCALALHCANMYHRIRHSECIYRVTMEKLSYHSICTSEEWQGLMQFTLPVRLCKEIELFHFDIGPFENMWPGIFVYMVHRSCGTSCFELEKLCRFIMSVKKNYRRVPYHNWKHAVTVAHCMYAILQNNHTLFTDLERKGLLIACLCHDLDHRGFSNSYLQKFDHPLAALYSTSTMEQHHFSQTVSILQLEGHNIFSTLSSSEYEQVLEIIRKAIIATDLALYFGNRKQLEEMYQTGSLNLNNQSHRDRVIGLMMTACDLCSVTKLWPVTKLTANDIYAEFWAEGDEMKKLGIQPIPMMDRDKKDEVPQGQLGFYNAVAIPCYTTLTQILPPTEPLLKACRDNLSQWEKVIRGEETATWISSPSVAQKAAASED

Row | Compound | IC50 [nM]
1 | CCCCOc1ccc(F)c(-c2nnc3c(C)nc4cc(Cl)ccc4n23)c1 [Example 22, 1-(5-Butoxy-2-fluoro-phenyl)-7-chloro-4-methyl-[1,2,4]triazolo[4,3-a]quinoxaline] | > 1000
2 | Cc1nc2cc(C#N)ccc2n2c(-c3cc(OCCCC(F)(F)F)ccc3Cl)nnc12 [Example 111, 7-Cyano-1-[2-chloro-5-(4,4,4,-trifluoro-butoxy)-phenyl]-4-methyl-[1,2,4]triazolo[4,3-a]quinoxaline] | > 1000
3 | Cc1nc2cc(Cl)ccc2n2c(-c3cc(Cl)ccc3Cl)nnc12 [Example 19, 7-Chloro-1-(2,5-dichloro-phenyl)-4-methyl-[1,2,4]triazolo[4,3-a]quinoxaline] | > 1000
4 | Cc1nc2ccc(C(F)(F)F)cc2n2c(-c3cc(C(F)(F)F)ccc3Cl)nnc12 [Example 65, 1-(2-Chloro-5-trifluoromethyl-phenyl)-4-methyl-8-trifluoromethyl-[1,2,4]triazolo[4,3-a]quinoxaline] | > 1000
5 | CCCCCCOc1ccc(F)c(-c2nnc3c(C)nc4cc(Cl)ccc4n23)c1 [Example 24, 7-Chloro-1-(2-fluoro-5-hexyloxy-phenyl)-4-methyl-[1,2,4]triazolo[4,3-a]quinoxaline] | > 1000
6 | Cc1nc2ccc(C(F)(F)F)cc2n2c(-c3cccc(Cl)c3Cl)nnc12 [Example 64, 1-(2,3-Dichloro-phenyl)-4-methyl-8-trifluoromethyl-[1,2,4]triazolo[4,3-a]quinoxaline] | 337
7 | Cc1ccc2nc(C)c3nnc(-c4cc(OCCCC(F)(F)F)ccc4Cl)n3c2c1 [Example 110, 1-[2-Chloro-5-(4,4,4,-trifluoro-butoxy)-phenyl]-4,8-dimethyl-[1,2,4]triazolo[4,3-a]quinoxaline] | > 1000
8 | Cc1nc2ccccc2n2c(-c3cc(OCC(C)O)ccc3Cl)nnc12 (stereo not shown) [Example 100, 1-[4-Chloro-3-(4-methyl-[1,2,4]triazolo[4,3-a]quinoxalin-1-yl)-phenoxy]-propan-2-ol] | 784
9 | Cc1nc2ccc(Cl)cc2n2c(-c3cc(OCCCO)ccc3Cl)nnc12 [Example 101, 3-[4-Chloro-3-(8-chloro-4-methyl-[1,2,4]triazolo[4,3-a]quinoxalin-1-yl)-phenoxy]-propan-1-ol] | 319
10 | Cc1nc2ccccc2n2c(-c3cc(OCC(=O)c4ccccn4)ccc3Cl)nnc12 [Example 93, 2-[4-Chloro-3-(4-methyl-[1,2,4]triazolo[4,3-a]quinoxalin-1-yl)-phenoxy]-1-pyridin-2-yl-ethanone] | > 1000
11 | Cc1nc2ccc(C(F)(F)F)cc2n2c(-c3ccccc3F)nnc12 [Example 66, 1-(2-Fluorophenyl)-4-methyl-8-trifluoromethyl-[1,2,4]triazolo[4,3-a]quinoxaline] | 471
12 | Cc1nc2ccc(Cl)cc2n2c(-c3ccccc3Cl)nnc12 [Example 1, 8-Chloro-1-(2-chloro-phenyl)-4-methyl-[1,2,4]triazolo[4,3-a]quinoxaline] | 45
13 | Cc1ncccc1-c1nnc2c(C)nc3ccc(F)cc3n12 [Example 53, 8-Fluoro-4-methyl-1-(2-methyl-pyridin-3-yl)-[1,2,4]triazolo[4,3-a]quinoxaline] | 1000
14 | Cc1nc2ccc(F)cc2n2c(-c3ccccc3F)nnc12 [Example 52, 8-Fluoro-1-(2-fluoro-phenyl)-4-methyl-[1,2,4]triazolo[4,3-a]quinoxaline] | 553
15 | Cc1nc2cc(Cl)ccc2n2c(-c3c(F)cccc3F)nnc12 [Example 18, 7-Chloro-1-(2,6-difluoro-phenyl)-4-methyl-[1,2,4]triazolo[4,3-a]quinoxaline] | 103
16 | Cc1nc2cc(O)ccc2n2c(-c3ccccc3Cl)nnc12 [Example 76, 1-(2-Chloro-phenyl)-4-methyl-[1,2,4]triazolo[4,3-a]quinoxalin-7-ol] | 274

Row | Compound | IC50 [nM]
17 | Cc1nc2ccccc2n2c(-c3cccc(Cl)c3Cl)nnc12 [Example 35, 1-(2,3-Dichloro-phenyl)-4-methyl-[1,2,4]triazolo[4,3-a]quinoxaline] | 360
18 | Cc1nc2ccccc2n2c(-c3cc(OCCN4CCCC4)ccc3Cl)nnc12 [Example 96, 1-[2-Chloro-5-(2-pyrrolidin-1-yl-ethoxy)-phenyl]-4-methyl-[1,2,4]triazolo[4,3-a]quinoxaline] | > 1000
19 | Cc1nc2ccccc2n2c(-c3cc(OCCN4CCCCC4)ccc3Cl)nnc12 [Example 95, 1-[2-Chloro-5-(2-piperidin-1-yl-ethoxy)-phenyl]-4-methyl-[1,2,4]triazolo[4,3-a]quinoxaline] | > 1000
20 | Cc1nc2ccccc2n2c(-c3cc(OCC4CC4)ccc3Cl)nnc12 [Example 48, 1-(2-Chloro-5-cyclopropylmethoxy-phenyl)-4-methyl-[1,2,4]triazolo[4,3-a]quinoxaline] | > 1000
21 | Cc1nc2ccccc2n2c(-c3cc(OCC4CCC4)ccc3Cl)nnc12 [Example 47, 1-(2-Chloro-5-cyclobutylmethoxy-phenyl)-4-methyl-[1,2,4]triazolo[4,3-a]quinoxaline] | > 1000
22 | Cc1nc2ccccc2n2c(-c3cc(OCCC4CCOCC4)ccc3Cl)nnc12 [Example 97, 1-{2-Chloro-5-[2-(tetrahydro-pyran-4-yl)-ethoxy]-phenyl}-4-methyl-[1,2,4]triazolo[4,3-a]quinoxaline] | > 1000
23 | Cc1nc2ccc(OCc3ccc4ccccc4n3)cc2n2c(-c3ccccc3Cl)nnc12 [Example 80, 1-(2-Chloro-phenyl)-4-methyl-8-(quinolin-2-ylmethoxy)-[1,2,4]triazolo[4,3-a]quinoxaline] | 10
24 | Cc1cnccc1-c1nnc2c(C)nc3ccc(Cl)cc3n12 [Example 9, 8-Chloro-4-methyl-1-(3-methyl-pyridin-4-yl)-[1,2,4]triazolo[4,3-a]quinoxaline] | 736
25 | Cc1nc2ccccc2n2c(-c3cc(Cl)ccc3Cl)nnc12 [Example 34, 1-(2,5-Dichloro-phenyl)-4-methyl-[1,2,4]triazolo[4,3-a]quinoxaline] | 330
26 | COc1ccc2c(c1)nc(C)c1nnc(-c3ccccc3F)n12 [Example 73, 1-(2-Fluoro-phenyl)-7-methoxy-4-methyl-[1,2,4]triazolo[4,3-a]quinoxaline] | 223
27 | Cc1nc2ccc(Cl)cc2n2c(-c3cc(C(F)(F)F)ccc3Cl)nnc12 [Example 10, 8-Chloro-1-(2-chloro-5-trifluoromethyl-phenyl)-4-methyl-[1,2,4]triazolo[4,3-a]quinoxaline] | > 1000
28 | Cc1nc2ccccc2n2c(-c3ccccc3F)nnc12 [Example 30, 1-(2-Fluoro-phenyl)-4-methyl-[1,2,4]triazolo[4,3-a]quinoxaline] | 346
29 | Cc1nc2cc(Cl)ccc2n2c(-c3cc(C(F)(F)F)ccc3Cl)nnc12 [Example 21, 7-Chloro-1-(2-chloro-5-trifluoromethyl-phenyl)-4-methyl-[1,2,4]triazolo[4,3-a]quinoxaline] | > 1000
30 | CCCCCCOc1ccc(F)c(-c2nnc3c(C)nc4ccc(F)cc4n23)c1 [Example 60, 8-Fluoro-1-(2-fluoro-5-hexyloxy-phenyl)-4-methyl-[1,2,4]triazolo[4,3-a]quinoxaline] | > 1000
31 | Cc1nc2ccc(Cl)cc2n2c(-c3cc(Cl)ccc3Cl)nnc12 [Example 6, 8-Chloro-1-(2,5-dichloro-phenyl)-4-methyl-[1,2,4]triazolo[4,3-a]quinoxaline] | 131
